Laboratory results from patent US9561231B2 (AbbVie Inc., priority 2012, dated 2017).

Experiments:
[1] = target: T1, first (BD1: amino acids K57-E168) bromodomain of BRD4 (Homo sapiens, UniProt O60885); experiment: TR-FRET bromodomain binding assay, BRD4 BD1; settings: TR-FRET assay protocol (A-G, compound concentration range); Ki calculated from IC50, probe Kd and probe concentration; read-out: TR-FRET Binding Ki: BRD4 (BDI_K57-E168)
T1 construct: His-tagged first (BD1: amino acids K57-E168)
Outline: (§1)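 His-tagged BRD4 bromodomain competed against an Alexa647-labeled BET-inhibitor probe by TR-FRET in 20 mM sodium phosphate pH 6.0, 50 mM NaCl, 1 mM EDTA, 0.01% Triton X-100, 1 mM DTT.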

[2] = target: T2, second (BD2: amino acids E352-E168) bromodomain of BRD4 (Homo sapiens, UniProt O60885); experiment: TR-FRET bromodomain binding assay, BRD4 BD2; settings: TR-FRET assay protocol (A-G, compound concentration range); Ki calculated from IC50, probe Kd and probe concentration; read-out: TR-FRET Binding Ki: BRD4 (BDII_E352-M457)
T2 construct: protocol
Outline: as §1

Row | Compound | Ki [1] | Ki [2]
1 | CN1CCN(c2cc(-c3cc(=O)n(C)nc3-c3ccccc3Oc3ccccc3)ccn2)CC1 [Example 174, 2-methyl-5-[2-(4-methylpiperazin-1-yl)pyridin-4-yl]-6-(2-phenoxyphenyl)pyridazin-3(2H)-one] | 854 nM | 764 nM
2 | Cn1nc(-c2ccccc2Oc2ccccc2)c(-c2cccc(C(=O)N3CCOCC3)c2)cc1=O [Example 175, 2-methyl-5-[3-(morpholin-4-ylcarbonyl)phenyl]-6-(2-phenoxyphenyl)pyridazin-3(2H)-one] | 2950 nM | 2490 nM
3 | Cc1nnc(-c2cccc(-c3cc(=O)n(C)nc3-c3ccccc3Oc3ccccc3)c2)o1 [Example 176, 2-methyl-5-[3-(5-methyl-1,3,4-oxadiazol-2-yl)phenyl]-6-(2-phenoxyphenyl)pyridazin-3(2H)-one] | 3660 nM | 2080 nM
4 | Cn1nc(-c2ccccc2Oc2ccccc2)c(-c2ccc(S(=O)(=O)N3CCCC3)cc2)cc1=O [Example 178, 2-methyl-6-(2-phenoxyphenyl)-5-[4-(pyrrolidin-1-ylsulfonyl)phenyl]pyridazin-3(2H)-one] | 3340 nM | 4540 nM
5 | Cn1nc(-c2ccccc2Oc2ccccc2)c(-c2ccc(N3CCOCC3)nc2)cc1=O [Example 179, 2-methyl-5-[6-(morpholin-4-yl)pyridin-3-yl]-6-(2-phenoxyphenyl)pyridazin-3(2H)-one] | 923 nM | 488 nM
6 | CCN(CC)C(=O)c1cc(-c2cc(=O)n(C)nc2-c2ccccc2Oc2ccccc2)ccc1F [Example 181, N,N-diethyl-2-fluoro-5-[1-methyl-6-oxo-3-(2-phenoxyphenyl)-1,6-dihydropyridazin-4-yl]benzamide] | 3950 nM | 6160 nM
7 | Cn1nc(-c2ccccc2Oc2ccccc2)c(-c2ccc(C(=O)NCc3ccccc3)cc2)cc1=O [Example 182, N-benzyl-4-[1-methyl-6-oxo-3-(2-phenoxyphenyl)-1,6-dihydropyridazin-4-yl]benzamide] | 531 nM | 174 nM
8 | Cn1nc(-c2ccccc2Oc2ccccc2)c(-c2ccc(N3CCCCC3)nc2)cc1=O [Example 184, 2-methyl-6-(2-phenoxyphenyl)-5-[6-(piperidin-1-yl)pyridin-3-yl]pyridazin-3(2H)-one] | 2140 nM | 1960 nM
9 | Cn1nc(-c2ccccc2Oc2ccccc2)c(-c2ccc(C(=O)NC3CCCCC3)cc2)cc1=O [Example 185, N-cyclohexyl-4-[1-methyl-6-oxo-3-(2-phenoxyphenyl)-1,6-dihydropyridazin-4-yl]benzamide] | 832 nM | 324 nM
10 | Cn1nc(-c2ccccc2Oc2ccccc2)c(-c2ccc(CNc3ccccc3)cc2)cc1=O [Example 187, 2-methyl-6-(2-phenoxyphenyl)-5-{4-[(phenylamino)methyl]phenyl}pyridazin-3(2H)-one] | 4950 nM | 2250 nM
11 | CCOc1cncc(-c2cc(=O)n(C)nc2-c2ccccc2Oc2ccccc2)c1 [Example 190, 5-(5-ethoxypyridin-3-yl)-2-methyl-6-(2-phenoxyphenyl)pyridazin-3(2H)-one] | 6560 nM | 2420 nM
12 | Cn1nc(-c2ccccc2Oc2ccccc2)c(-c2cccnc2)cc1=O [Example 195, 2-methyl-6-(2-phenoxyphenyl)-5-(pyridin-3-yl)pyridazin-3(2H)-one] | 664 nM | 317 nM
13 | COc1cccc(-c2cc(=O)n(C)nc2-c2ccccc2Oc2ccccc2)c1 [Example 197, 5-(3-methoxyphenyl)-2-methyl-6-(2-phenoxyphenyl)pyridazin-3(2H)-one] | 1060 nM | 725 nM
14 | CCNC(=O)c1ccc(-c2cc(=O)n(C)nc2-c2ccccc2Oc2ccccc2)cc1 [Example 202, N-ethyl-4-[1-methyl-6-oxo-3-(2-phenoxyphenyl)-1,6-dihydropyridazin-4-yl]-benzamide] | 227 nM | 251 nM
15 | COc1ccc(-c2cc(=O)n(C)nc2-c2ccccc2Oc2ccccc2)cc1F [Example 203, 5-(3-fluoro-4-methoxyphenyl)-2-methyl-6-(2-phenoxyphenyl)pyridazin-3(2H)-one] | 3510 nM | 1520 nM
16 | Cc1cc(-c2cc(=O)n(C)nc2-c2ccccc2Oc2ccccc2)ccn1 [Example 205, 2-methyl-5-(2-methylpyridin-4-yl)-6-(2-phenoxyphenyl)pyridazin-3(2H)-one] | 2830 nM | 2970 nM

Now from value to compound:

Row | Ki [1] | Ki [2] | Compound
17 | 4170 nM | 1070 nM | Cn1nc(-c2ccccc2Oc2ccccc2)c(-c2cccc(C(=O)NC3CC3)c2)cc1=O [Example 177, N-cyclopropyl-3-[1-methyl-6-oxo-3-(2-phenoxyphenyl)-1,6-dihydropyridazin-4-yl]benzamide]
18 | 256 nM | 166 nM | Cn1nc(-c2ccccc2Oc2ccccc2)c(-c2ccc(C(=O)N3CCCC3)cc2)cc1=O [Example 183, 2-methyl-6-(2-phenoxyphenyl)-5-[4-(pyrrolidin-1-ylcarbonyl)phenyl]pyridazin-3(2H)-one]
19 | 1320 nM | 854 nM | CN(C)CCNC(=O)c1cccc(-c2cc(=O)n(C)nc2-c2ccccc2Oc2ccccc2)c1 [Example 186, N-[2-(dimethylamino)ethyl]-3-[1-methyl-6-oxo-3-(2-phenoxyphenyl)-1,6-dihydropyridazin-4-yl]benzamide]
20 | 670 nM | 1130 nM | CN1CCN(c2ncc(-c3cc(=O)n(C)nc3-c3ccccc3Oc3ccccc3)cn2)CC1 [Example 188, 2-methyl-5-[2-(4-methylpiperazin-1-yl)pyrimidin-5-yl]-6-(2-phenoxyphenyl)pyridazin-3(2H)-one]
21 | 3140 nM | 1480 nM | COC(=O)Cc1ccc(-c2cc(=O)n(C)nc2-c2ccccc2Oc2ccccc2)cc1 [Example 189, methyl{4-[1-methyl-6-oxo-3-(2-phenoxyphenyl)-1,6-dihydropyridazin-4-yl]phenyl}acetate]
22 | 1040 nM | 395 nM | CN(C)c1ncc(-c2cc(=O)n(C)nc2-c2ccccc2Oc2ccccc2)cn1 [Example 192, 5-[2-(dimethylamino)pyrimidin-5-yl]-2-methyl-6-(2-phenoxyphenyl)pyridazin-3(2H)-one]
23 | 1080 nM | 670 nM | Cc1ccc(-c2cc(=O)n(C)nc2-c2ccccc2Oc2ccccc2)cn1 [Example 196, 2-methyl-5-(6-methylpyridin-3-yl)-6-(2-phenoxyphenyl)pyridazin-3(2H)-one]
24 | > 13000 nM | 5660 nM | COc1cc(-c2cc(=O)n(C)nc2-c2ccccc2Oc2ccccc2)ccc1F [Example 199, 5-(4-fluoro-3-methoxyphenyl)-2-methyl-6-(2-phenoxyphenyl)pyridazin-3(2H)-one]
25 | 344 nM | 971 nM | Cn1nc(-c2ccccc2Oc2ccccc2)c(-c2ccnc(N)c2)cc1=O [Example 200, 5-(2-aminopyridin-4-yl)-2-methyl-6-(2-phenoxyphenyl)pyridazin-3(2H)-one]
26 | 2410 nM | 1710 nM | CC(=O)c1cccc(-c2cc(=O)n(C)nc2-c2ccccc2Oc2ccccc2)c1 [Example 201, 5-(3-acetylphenyl)-2-methyl-6-(2-phenoxyphenyl)pyridazin-3(2H)-one]
27 | 1020 nM | 1960 nM | Cc1c(-c2cc(=O)n(C)nc2-c2ccccc2Oc2ccccc2)cnn1C [Example 204, 5-(1,5-dimethyl-1H-pyrazol-4-yl)-2-methyl-6-(2-phenoxyphenyl)pyridazin-3(2H)-one]
